Experimental data as given in patent publication US9120804B2, “8-substituted 2-amino-[1,2,4] triazolo [1, 5-A] pyrazines as Syk tryrosine kinase inhibitors and GCN2 serin kinase inhibitors” (Merck Patent GmbH, priority 2012, dated 2015).

Target: T1, SYK (Homo sapiens, UniProt P43405)
T1 construct: 2.5 nM SYK, 400 nM Biotin-Aha-Aha-KEDPDYEWPSAKK
Test: SYK flash plate assay (enzyme assay)
Format: biochemical
Experimental: The kinase assay is performed either as 384-well Flashplate assay (for e.g. Topcount measurement) or as 384-well Image-Flashplate assay (for LEADseeker measurement).
2.5 nM SYK, 400 nM Biotin-Aha-Aha-KEDPDYEWPSAKK
and 10 μM ATP (spiked with 0.3 μCi 33P-ATP/well) are incubated in a total volume of 50 μl (60 mM Hepes, 10 mM MgCl2, 1.2 mM Dithiothreitol, 0.02% Brij35, 0.1% BSA, pH 7.5) with or without test compound for 1 hours at 30° C. The reaction is stopped with 25 μl 200 mM EDTA. After 30 Min at 30° C. the liquid is removed and each well washed thrice with 100 μl 0.9% sodium chloride solution. Non-specific reaction is determined in presence of […] Staurosporine. Radioactivity is measured with Topcount (when using Flashplates) or with LEADseeker (when using Image-Flashplates) respectively. Results (e.g. IC50-values) are calculated with program tools provided by the IT-department (e.g. Symyx Assay Explorer, Genedata Screener). In Vivo Assays CIA

| SMILES | IC50 [nM] |
| --- | --- |
| CC1CCCN1c1nccn2nc(Nc3ccc4c(c3)NC(=O)C4(C)C)nc12 (centres unmarked) [E42, 3,3-dimethyl-6-[8-(2-methyl-pyrrolidin-1-yl)-[1,2,4]triazolo[1,5-a]pyrazin-2-ylamino]-1,3-dihydro-indol-2-one] | < 100 |
| CC1(C)CCNc2cc(Nc3nc4c(N5CCC6(CCNC6)C5)nccn4n3)ccc21 (centres unmarked) [E9, [8-(2,7-diaza-spiro[4.4]non-2-yl)-[1,2,4]triazolo[1,5-a]pyrazin-2-yl]-(4,4-dimethyl-1,2,3,4-tetrahydro-quinolin-7-yl)-amine] | < 100 |
| CC1(C)C(=O)Nc2cc(Nc3nc4c(N[C@@H]5CCCNC5)nccn4n3)ccc21 [C87, 3,3-dimethyl-6-[8-((R)-piperidin-3-ylamino)-[1,2,4]triazolo[1,5-a]pyrazin-2-ylamino]-1,3-dihydro-indol-2-one] | 100 to 300 |
| CC1(C)C(=O)Nc2cc(Nc3nc4c(N5CC[C@]6(CC(=O)NC6=O)C5)nccn4n3)ccc21 [E18, (S)-7-[2-(3,3-dimethyl-2-oxo-2,3-dihydro-1H-indol-6-ylamino)-[1,2,4]triazolo[1,5-a]pyrazin-8-yl]-2,7-diaza-spiro[4.4]nonane-1,3-dione] | < 100 |
| Cn1cc(-c2nccn3nc(Nc4ccc5c(c4)NC(=O)NC5(C)C)nc23)cn1 [E26, 4,4-dimethyl-7-[8-(1-methyl-1H-pyrazol-4-yl)-[1,2,4]triazolo[1,5-a]pyrazin-2-ylamino]-3,4-dihydro-1H-quinazolin-2-one] | < 100 |
| CC1(C)C(=O)Nc2cc(Nc3nc4c(N5CCc6nc(O)nc(O)c6C5)nccn4n3)ccc21 [E1, 6-[8-(2,4-dihydroxy-7,8-dihydro-5H-pyrido[4,3-d]pyrimidin-6-yl)-[1,2,4]triazolo[1,5-a]pyrazin-2-ylamino]-3,3-dimethyl-1,3-dihydro-indol-2-one] | < 100 |
| CC1(C)C(=O)Nc2cc(Nc3nc4c(-c5cccc(S(N)(=O)=O)c5)nccn4n3)ccc21 [C102, 3-[2-(3,3-dimethyl-2-oxo-2,3-dihydro-1H-indol-6-ylamino)-[1,2,4]triazolo[1,5-a]pyrazin-8-yl]-benzenesulfonamide] | < 100 |
| CC1(C)C(=O)Nc2cc(Nc3nc4c(N5C[C@H](O)C[C@H]5c5ccccc5)nccn4n3)ccc21 [E24, 6-[8-((2S,4R)-4-hydroxy-2-phenyl-pyrrolidin-1-yl)-[1,2,4]triazolo[1,5-a]pyrazin-2-ylamino]-3,3-dimethyl-1,3-dihydro-indol-2-one] | 3000 to 50000 |
| COc1cccc(Nc2nc3c(-c4ccccc4C#N)nccn3n2)c1 [E31, 2-[2-(3-methoxy-phenylamino)-[1,2,4]triazolo[1,5-a]pyrazin-8-yl]-benzonitrile] | < 100 |
| CC1(C)C(=O)Nc2cc(Nc3nc4c(N[C@H]5C[C@H](N)C5)nccn4n3)ccc21 [C97, 6-[8-(trans-3-amino-cyclobutylamino)-[1,2,4]triazolo[1,5-a]pyrazin-2-ylamino]-3,3-dimethyl-1,3-dihydro-indol-2-one] | 300 to 3000 |
| CNS(=O)(=O)C1CCN(c2nccn3nc(Nc4ccc5c(c4)NC(=O)C5(C)C)nc23)CC1 [E38, 1-[2-(3,3-dimethyl-2-oxo-2,3-dihydro-1H-indol-6-ylamino)-[1,2,4]triazolo[1,5-a]pyrazin-8-yl]-piperidine-4-sulfonic acid methylamide] | 100 to 300 |
| COc1cc(Nc2nc3c(N4CCCC(C(N)=O)C4)nccn3n2)cc(OC)c1 (centres unmarked) [D2, 1-[2-(3,5-dimethoxy-phenylamino)-[1,2,4]triazolo[1,5-a]pyrazin-8-yl]-piperidine-3-carboxylic acid amide] | 300 to 3000 |
| CC1(C)C(=O)Nc2cc(Nc3nc4c(N5CC[C@@]6(CC(=O)NC6=O)C5)nccn4n3)ccc21 [E16, (R)-7-[2-(3,3-dimethyl-2-oxo-2,3-dihydro-1H-indol-6-ylamino)-[1,2,4]triazolo[1,5-a]pyrazin-8-yl]-2,7-diaza-spiro[4.4]nonane-1,3-dione] | < 100 |
| Cn1cc(-c2nccn3nc(Nc4ccc5c(c4)NCCC5(C)C)nc23)cn1 [E21, (4,4-dimethyl-1,2,3,4-tetrahydro-quinolin-7-yl)-[8-(1-methyl-1H-pyrazol-4-yl)-[1,2,4]triazolo[1,5-a]pyrazin-2-yl]-amine] | < 100 |
| CC1(C)C(=O)Nc2cc(Nc3nc4c(N5C[C@H](O)C[C@@H]5c5ccccc5)nccn4n3)ccc21 (racemic) [C143, 6-[8-(4-hydroxy-2-phenyl-pyrrolidin-1-yl)-[1,2,4]triazolo[1,5-a]pyrazin-2-ylamino]-3,3-dimethyl-1,3-dihydro-indol-2-one] | 100 to 300 |
| CC1(C)C(=O)Nc2cc(Nc3nc4c(N5CCCC6(COC6)C5)nccn4n3)ccc21 [C92, 3,3-dimethyl-6-[8-(2-oxa-6-aza-spiro[3.5]non-6-yl)-[1,2,4]triazolo[1,5-a]pyrazin-2-ylamino]-1,3-dihydro-indol-2-one] | < 100 |
| Cc1nn(C)c(C)c1-c1nccn2nc(Nc3ccc4c(c3)NC(=O)C4(C)C)nc12 [C68, 3,3-dimethyl-6-[8-(1,3,5-trimethyl-1H-pyrazol-4-yl)-[1,2,4]triazolo[1,5-a]pyrazin-2-ylamino]-1,3-dihydro-indol-2-one] | 300 to 3000 |
| CC1(C)C(=O)Nc2cc(Nc3nc4c(NC5CN6CCC5CC6)nccn4n3)ccc21 (centres unmarked) [E135, 6-[8-(1-aza-bicyclo[2.2.2]oct-3-ylamino)-[1,2,4]triazolo[1,5-a]pyrazin-2-ylamino]-3,3-dimethyl-1,3-dihydro-indol-2-one] | < 100 |
| CS(=O)(=O)Nc1ccc(-c2nccn3nc(Nc4ccc(N5CCOCC5)cc4)nc23)cc1 [C42, N-{4-[2-(4-morpholin-4-yl-phenylamino)-[1,2,4]triazolo[1,5-a]pyrazin-8-yl]-phenyl}-methanesulfonamide] | 300 to 3000 |

Second part, the molecule after the results:

| IC50 [nM] | SMILES |
| --- | --- |
| < 100 | CC1Cc2ccccc2N1c1nccn2nc(Nc3ccc4c(c3)NC(=O)C4(C)C)nc12 (centres unmarked) [E137, 3,3-dimethyl-6-[8-(2-methyl-2,3-dihydro-indol-1-yl)-[1,2,4]triazolo[1,5-a]pyrazin-2-ylamino]-1,3-dihydro-indol-2-one] |
| < 100 | CCC1(O)CCN(c2nccn3nc(Nc4ccc5c(c4)NC(=O)C5(C)C)nc23)CC1 [E44, 6-[8-(4-ethyl-4-hydroxy-piperidin-1-yl)-[1,2,4]triazolo[1,5-a]pyrazin-2-ylamino]-3,3-dimethyl-1,3-dihydro-indol-2-one] |
| 3000 to 50000 | CC1(C)C(=O)Nc2cc(Nc3nc4c(NS(C)(=O)=O)nccn4n3)ccc21 [E104, N-[2-(3,3-dimethyl-2-oxo-2,3-dihydro-1H-indol-6-ylamino)-[1,2,4]triazolo[1,5-a]pyrazin-8-yl]-methanesulfonamide] |
| 3000 to 50000 | CC1(C)C(=O)Nc2cc(Nc3nc4c(NCCCNc5nccn6nc(Nc7ccc8c(c7)NC(=O)C8(C)C)nc56)nccn4n3)ccc21 [E117, 6-[[8-[3-[[2-[(3,3-dimethyl-2-oxo-indolin-6-yl)amino]-[1,2,4]triazolo[1,5-a]pyrazin-8-yl]amino]propylamino]-[1,2,4]triazolo[1,5-a]pyrazin-2-yl]amino]-3,3-dimethyl-indolin-2-one] |
| < 100 | CC1(C)OC(=O)Nc2cc(Nc3nc4c(N5CCC6(CC5)CNC(=O)O6)nccn4n3)ccc21 [E47, 4,4-dimethyl-7-[8-(2-oxo-1-oxa-3,8-diaza-spiro[4.5]dec-8-yl)-[1,2,4]triazolo[1,5-a]pyrazin-2-ylamino]-1,4-dihydro-benzo[d][1,3]oxazin-2-one] |
| < 100 | CC1(C)C(=O)Nc2cc(Nc3nc4c(N5CCc6ccc(N)cc65)nccn4n3)ccc21 [E102, 6-[8-(6-amino-2,3-dihydro-indol-1-yl)-[1,2,4]triazolo[1,5-a]pyrazin-2-ylamino]-3,3-dimethyl-1,3-dihydro-indol-2-one] |
| < 100 | CC1(C)CCOc2cc(Nc3nc4c(N5CCC6(CC5)CNC(=O)O6)nccn4n3)ccc21 [E55, 8-[2-(4,4-dimethyl-chroman-7-ylamino)-[1,2,4]triazolo[1,5-a]pyrazin-8-yl]-1-oxa-3,8-diaza-spiro[4.5]decan-2-one] |
| < 100 | Cn1cc(-c2nccc3nc(Nc4ccc5c(c4)NC(=O)CCC5(C)C)nn23)cn1 [E155, 5,5-dimethyl-8-[5-(1-methyl-1H-pyrazol-4-yl)-[1,2,4]triazolo[1,5-c]pyrimidin-2-ylamino]-1,3,4,5-tetrahydro-benzo[b]azepin-2-one] |
| < 100 | CC1(C)OC(C(F)(F)F)Nc2cc(Nc3nc4c(N5CCCCCC5)nccn4n3)ccc21 (centres unmarked) [E126, (8-azepan-1-yl-[1,2,4]triazolo[1,5-a]pyrazin-2-yl)-(4,4-dimethyl-2-trifluoromethyl-1,4-dihydro-2H-benzo[d][1,3]oxazin-7-yl)-amine] |
| < 100 | CC1(C)C(=O)Nc2cc(Nc3nc4c(N5CCNC(=O)CC5)nccn4n3)ccc21 [E74, 3,3-dimethyl-6-[8-(5-oxo-[1,4]diazepan-1-yl)-[1,2,4]triazolo[1,5-a]pyrazin-2-ylamino]-1,3-dihydro-indol-2-one] |
| < 100 | CC1(C)C(=O)Nc2cc(Nc3nc4c(N5CCc6ccccc65)nccn4n3)ccc21 [E73, 6-[8-(2,3-dihydro-indol-1-yl)-[1,2,4]triazolo[1,5-a]pyrazin-2-ylamino]-3,3-dimethyl-1,3-dihydro-indol-2-one] |
| < 100 | CC1(C)C(=O)Nc2cc(Nc3nc4c(-c5ccc6c(c5)OCCO6)nccn4n3)ccc21 [E142, 6-[8-(2,3-dihydro-benzo[1,4]dioxin-6-yl)-[1,2,4]triazolo[1,5-a]pyrazin-2-ylamino]-3,3-dimethyl-1,3-dihydro-indol-2-one] |
| < 100 | CN(C)c1nccn2nc(Nc3ccc4c(c3)NC(=O)C4(C)C)nc12 [E88, 6-(8-dimethylamino-[1,2,4]triazolo[1,5-a]pyrazin-2-ylamino)-3,3-dimethyl-1,3-dihydro-indol-2-one] |
